Test system: Transport facilitation protein genes
Experiment: DNA chip mRNA expression in yeast, transport facilitation protein genes (Table 5)
Type: cell-based, Saccharomyces cerevisiae S288C
Procedure, shortened: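 Values are treated/untreated fluorescence ratios from a whole-genome yeast DNA chip hybridized over 12 hours at 65° C with Cy3- or Cy5-labelled cDNA from poly(A) mRNA. Log-phase S288C yeast in YPD at 25° C had received a single toxic chemical for two hours, dosed to slow growth without killing.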

SMILES: CN(C)C(=S)SSC(=S)N(C)C [(10), Tetramethylthiuram disulfide]
- The level of expressed mRNA in the presence of chemical substance/The level of expressed mRNA in the absence of chemical substance (yeast gene YBL030C): 0.9
- The level of expressed mRNA in the presence of chemical substance/The level of expressed mRNA in the absence of chemical substance (yeast gene YBL099W): 0.7
- The level of expressed mRNA in the presence of chemical substance/The level of expressed mRNA in the absence of chemical substance (yeast gene YBR052C): 2.5
- The level of expressed mRNA in the presence of chemical substance/The level of expressed mRNA in the absence of chemical substance (yeast gene YBR068C): 2.5
- The level of expressed mRNA in the presence of chemical substance/The level of expressed mRNA in the absence of chemical substance (yeast gene YBR127C): 1.3
- The level of expressed mRNA in the presence of chemical substance/The level of expressed mRNA in the absence of chemical substance (yeast gene YBR132C): 1.1
- The level of expressed mRNA in the presence of chemical substance/The level of expressed mRNA in the absence of chemical substance (yeast gene YBR207W): 2.2
- The level of expressed mRNA in the presence of chemical substance/The level of expressed mRNA in the absence of chemical substance (yeast gene YBR293W): 2.4
- The level of expressed mRNA in the presence of chemical substance/The level of expressed mRNA in the absence of chemical substance (yeast gene YBR294W): 5.2
- The level of expressed mRNA in the presence of chemical substance/The level of expressed mRNA in the absence of chemical substance (yeast gene YBR295W): 3.3
- The level of expressed mRNA in the presence of chemical substance/The level of expressed mRNA in the absence of chemical substance (yeast gene YBR298C): 1.1
- The level of expressed mRNA in the presence of chemical substance/The level of expressed mRNA in the absence of chemical substance (yeast gene YCL025C): 0.3
- The level of expressed mRNA in the presence of chemical substance/The level of expressed mRNA in the absence of chemical substance (yeast gene YCL038C): 0.9
- The level of expressed mRNA in the presence of chemical substance/The level of expressed mRNA in the absence of chemical substance (yeast gene YCR024C-A): 0.7
- The level of expressed mRNA in the presence of chemical substance/The level of expressed mRNA in the absence of chemical substance (yeast gene YCR037C): 0.6
- The level of expressed mRNA in the presence of chemical substance/The level of expressed mRNA in the absence of chemical substance (yeast gene YCR098C): 2.4
- The level of expressed mRNA in the presence of chemical substance/The level of expressed mRNA in the absence of chemical substance (yeast gene YDL128W): 0.7
- The level of expressed mRNA in the presence of chemical substance/The level of expressed mRNA in the absence of chemical substance (yeast gene YDL198C): 2.7
- The level of expressed mRNA in the presence of chemical substance/The level of expressed mRNA in the absence of chemical substance (yeast gene YDL206W): 1.5
- The level of expressed mRNA in the presence of chemical substance/The level of expressed mRNA in the absence of chemical substance (yeast gene YDL210W): 1.4
- The level of expressed mRNA in the presence of chemical substance/The level of expressed mRNA in the absence of chemical substance (yeast gene YDL245C): 2.8
- The level of expressed mRNA in the presence of chemical substance/The level of expressed mRNA in the absence of chemical substance (yeast gene YDR038C): 0.9
- The level of expressed mRNA in the presence of chemical substance/The level of expressed mRNA in the absence of chemical substance (yeast gene YDR039C): 1.0
- The level of expressed mRNA in the presence of chemical substance/The level of expressed mRNA in the absence of chemical substance (yeast gene YDR086C): 0.8
- The level of expressed mRNA in the presence of chemical substance/The level of expressed mRNA in the absence of chemical substance (yeast gene YDR270W): 3.6
- The level of expressed mRNA in the presence of chemical substance/The level of expressed mRNA in the absence of chemical substance (yeast gene YDR298C): 1.6
- The level of expressed mRNA in the presence of chemical substance/The level of expressed mRNA in the absence of chemical substance (yeast gene YDR342C): 2.2
- The level of expressed mRNA in the presence of chemical substance/The level of expressed mRNA in the absence of chemical substance (yeast gene YDR343C): 2.1
- The level of expressed mRNA in the presence of chemical substance/The level of expressed mRNA in the absence of chemical substance (yeast gene YDR345C): 1.1
- The level of expressed mRNA in the presence of chemical substance/The level of expressed mRNA in the absence of chemical substance (yeast gene YDR387C): 2.0
- The level of expressed mRNA in the presence of chemical substance/The level of expressed mRNA in the absence of chemical substance (yeast gene YDR497C): 0.8
- The level of expressed mRNA in the presence of chemical substance/The level of expressed mRNA in the absence of chemical substance (yeast gene YEL027W): 1.1
- The level of expressed mRNA in the presence of chemical substance/The level of expressed mRNA in the absence of chemical substance (yeast gene YEL063C): 1.7
- The level of expressed mRNA in the presence of chemical substance/The level of expressed mRNA in the absence of chemical substance (yeast gene YEL065W): 4.9
- The level of expressed mRNA in the presence of chemical substance/The level of expressed mRNA in the absence of chemical substance (yeast gene YER053C): 3.9
- The level of expressed mRNA in the presence of chemical substance/The level of expressed mRNA in the absence of chemical substance (yeast gene YER119C): 1.2
- The level of expressed mRNA in the presence of chemical substance/The level of expressed mRNA in the absence of chemical substance (yeast gene YFL011W): 1.6
- The level of expressed mRNA in the presence of chemical substance/The level of expressed mRNA in the absence of chemical substance (yeast gene YFL041W): 5.1
- The level of expressed mRNA in the presence of chemical substance/The level of expressed mRNA in the absence of chemical substance (yeast gene YFL050C): 1.6
- The level of expressed mRNA in the presence of chemical substance/The level of expressed mRNA in the absence of chemical substance (yeast gene YFL054C): 2.3
- The level of expressed mRNA in the presence of chemical substance/The level of expressed mRNA in the absence of chemical substance (yeast gene YFL055W): 6.5
- The level of expressed mRNA in the presence of chemical substance/The level of expressed mRNA in the absence of chemical substance (yeast gene YGL006W): 1.2
- The level of expressed mRNA in the presence of chemical substance/The level of expressed mRNA in the absence of chemical substance (yeast gene YGL008C): 0.4
- The level of expressed mRNA in the presence of chemical substance/The level of expressed mRNA in the absence of chemical substance (yeast gene YGL104C): 2.1
- The level of expressed mRNA in the presence of chemical substance/The level of expressed mRNA in the absence of chemical substance (yeast gene YGL167C): 1.1
- The level of expressed mRNA in the presence of chemical substance/The level of expressed mRNA in the absence of chemical substance (yeast gene YGL255W): 5.0
- The level of expressed mRNA in the presence of chemical substance/The level of expressed mRNA in the absence of chemical substance (yeast gene YGR055W): 2.4
- The level of expressed mRNA in the presence of chemical substance/The level of expressed mRNA in the absence of chemical substance (yeast gene YGR065C): 2.6
- The level of expressed mRNA in the presence of chemical substance/The level of expressed mRNA in the absence of chemical substance (yeast gene YGR082W): 0.9
- The level of expressed mRNA in the presence of chemical substance/The level of expressed mRNA in the absence of chemical substance (yeast gene YGR096W): 0.8
- The level of expressed mRNA in the presence of chemical substance/The level of expressed mRNA in the absence of chemical substance (yeast gene YGR138C): 1.0
- The level of expressed mRNA in the presence of chemical substance/The level of expressed mRNA in the absence of chemical substance (yeast gene YGR191W): 0.7
- The level of expressed mRNA in the presence of chemical substance/The level of expressed mRNA in the absence of chemical substance (yeast gene YGR197C): 3.2
- The level of expressed mRNA in the presence of chemical substance/The level of expressed mRNA in the absence of chemical substance (yeast gene YGR224W): 0.9
- The level of expressed mRNA in the presence of chemical substance/The level of expressed mRNA in the absence of chemical substance (yeast gene YGR260W): 0.4

Reference: US8192962B2, “Processes for detecting toxic substances” (Daikin Industries, Ltd., priority 2001, dated 2012)
